# Like-named read-outs stand apart in the source and are kept apart here.
# Test system: T1, BaH-ω-TA
# T1 construct: gene omega-TA; native enzyme in unpurified crude extract of the wild-type strain; one activity band on native PAGE
# Test: acetophenone formation by HPLC, Michaelis-Menten non-linear fit
# Assay type: biochemical, Bacillus sp. BaH
# Conditions: 0.1 mM PLP, Britton-Robinson buffer pH 6, 15 % DMSO, 35 °C, 1 mg/mL crude extract, read-out: apparent Km
SMILES,Km (70 mM (S)-MBA) [mM],Km (60 mM pyruvate) [mM]
CC(=O)C(=O)O [pyruvate],17.3,
C[C@H](N)c1ccccc1 [(S)-MBA],,2.6

# — article PMC7988029, “Growth optimization and identification of an ω-transaminase by a novel native PAGE activity staining method in a Bacillus sp. strain BaH isolated from Iranian soil” (AMB Express, 2021)
